Experimental data taken from US20160320417A1, “METHODS AND KITS FOR DETERMINING RISK FOR DEVELOPING ALZHEIMER'S DISEASE AND PREVENTION OR TREATMENT THEREOF” (Loma Linda University, priority 2013, published 2016).

Assays:
[1] = clinical trials, cited from earlier work; for mitigation of clinical AD progression: drugs aimed at preventing Aβ aggregates from forming into SPs
peripheral blood cells = assay: filipin staining of peripheral blood cells measured by flow cytometry after inducing cholesterol dysregulation; type: cell-based; settings: peripheral blood cells (PBCs) treated with the compound; FIG. 7
From the text: In some embodiments, peripheral blood cells can be isolated and filipin levels measured by flow cytometry. This can allows for the cells to be isolated inexpensively and at minimal risk to the patient from simple venipuncture rather than requiring the invasive punch biopsy method for collection of fibroblasts as used and described in the results presented herein. A venipuncture can be performed with a venipuncture assembly including, for example, but not limited to, a plastic hub, a hydrodermic needle, a vacuum tube, a syringe, a butterfly needle, and/or other blood collection or vanipuncture devices known in the art. Accordingly, the ability to isolate peripheral blood cells and measure the filipin levels by flow cytometry can facilitate the commercialization of the testing procedure and techniques described herein for preventing and detecting disease. The isolation of peripheral blood cells and measuring of the filipin levels by flow cytometry was tested in two ways. […] Cholesterol dysregulation was induced by treating the cells with Ul 8666A, a compound that inhibits cholesterol synthesis and intracellular trafficking.

Compound	mitigation of clinical AD progression [1]	also measured
NCCCS(=O)(=O)O [homotaurine]	failed to mitigate clinical AD progression	–
O[C@H]1[C@H](O)[C@@H](O)[C@H](O)[C@@H](O)[C@@H]1O [scyllo-inositol]	failed to mitigate clinical AD progression	–
C[C@@H](C(=O)O)c1ccc(-c2ccccc2)c(F)c1 [tarenflurbil]	–	benefit to cognitive function ([1]; compounds targeting γ-secretase, even when reducing Aβ levels): no benefit to cognitive function
CCN(CC)CCO[C@H]1CC[C@@]2(C)C(=CC[C@@H]3[C@@H]2CC[C@]2(C)C(=O)CC[C@@H]32)C1 [U18666A]	–	effect on filipin staining (filipin fluorescence) (peripheral blood cells): dose-dependent effect
